In patent publication US9815835B2, “Substituted polycyclic carbamolypyridone derivative” (priority 2009, dated 2017) one finds EC50 data, which are given here for 68 molecules.

This test relates to influenza virus. As to the kind of experiment: microbe, parasite or virus in culture. It is filed as cell-based, influenza virus (MDBK or MDCK cells). The note with it: unidentified influenza virus, 72 h, read-out: CPE EC50, effective concentration to achieve 50% CPE inhibition, 3 days incubation, WST-8.
On to `O=C(O)c1cn2c(c(O)c1=O)C(=O)N(Cc1ccc(F)cc1F)C[C@@H]2C(c1ccccc1)c1ccccc1` [Example 16], for which the EC50 worked out at 0.632 µM.
As for `CCCN1C[C@H](C(c2ccccc2)c2ccccc2)n2cc(C(=O)O)c(=O)c(O)c2C1=O` [Example 181], the EC50 was determined as 0.349 µM.
Under `CC(C)=CCN1C[C@H](C(c2ccccc2)c2ccccc2)n2cc(C(=O)O)c(=O)c(O)c2C1=O` [Example 182] stands 0.562 µM; under `CC(C)OCCN1C[C@H](C(c2ccccc2)c2ccccc2)n2cc(C(=O)O)c(=O)c(O)c2C1=O` [Example 184], 0.403 µM; under `CCC(C)N1C[C@H](C(c2ccccc2)c2ccccc2)n2cc(C(=O)O)c(=O)c(O)c2C1=O` (some centres unmarked) [Example 186], 0.159 µM.
Regarding `CCCC(C)N1C[C@H](C(c2ccccc2)c2ccccc2)n2cc(C(=O)O)c(=O)c(O)c2C1=O` (some centres unmarked) [Example 187], the EC50 came out at 0.282 µM.
As for `CC(C)N1CN(Cc2ccc(Cl)c(Cl)c2)n2ccc(=O)c(O)c2C1=O` [Example 199], the EC50 was determined as 2.72 µM.
`CC(N1CN(C(c2ccccc2)c2ccccc2Cl)n2ccc(=O)c(O)c2C1=O)C(F)(F)F` (centres unmarked) [Example 242]: the EC50 worked out at 0.059 µM.
Under `COCCN1CN(C2c3ccccc3CCc3ccccc32)n2ccc(=O)c(O)c2C1=O` [Example 258] stands 0.028 µM; under `CC(=O)OCC(C)N1CN(C2c3ccccc3CCc3ccccc32)n2ccc(=O)c(O)c2C1=O` (centres unmarked) [Example 261], 0.047 µM.
For `O=C1c2c(O)c(=O)ccn2N(C2c3ccccc3CCc3ccccc32)CN1CCF` [Example 262] the value was 0.038 µM; for `O=C1c2c(O)c(=O)ccn2N(C2c3ccccc3CCc3ccccc32)CN1CC(F)(F)F` [Example 263], 0.075 µM.
For `CC(C)(C)N1CN(C2c3ccccc3CCc3ccccc32)n2ccc(=O)c(O)c2C1=O` [Example 265], the EC50 is 0.036 µM.
Under `COCCCN1CN(C2c3ccccc3CCc3ccccc32)n2ccc(=O)c(O)c2C1=O` [Example 267] stands 0.063 µM.
For `CS(=O)(=O)CCN1CN(C2c3ccccc3CCc3ccccc32)n2ccc(=O)c(O)c2C1=O` [Example 269] the value was 0.417 µM; for `Cc1noc(CN2CN(C3c4ccccc4CCc4ccccc43)n3ccc(=O)c(O)c3C2=O)n1` [Example 270], 0.129 µM; for `CC(=O)OCCN1CN(C2c3ccccc3CCc3ccccc32)n2ccc(=O)c(O)c2C1=O` [Example 276], 0.089 µM.
Take `CC(C)N1CN(C2c3cc(F)ccc3CCc3ccc(F)cc32)n2ccc(=O)c(O)c2C1=O` [Example 279]: the EC50 is 0.119 µM.
On to `CC(C)N1CN(C2c3ccccc3CCc3c(Cl)cccc32)n2ccc(=O)c(O)c2C1=O` (centres unmarked) [Example 282], for which the EC50 worked out at 0.029 µM.
Under `CC(C)N1CN(C2c3ccc(F)cc3CCc3cc(F)ccc32)n2ccc(=O)c(O)c2C1=O` [Example 284] stands 0.019 µM; under `CC(=O)N1CC[C@@H](N2CN(C3c4ccccc4CSc4ccccc43)n3ccc(=O)c(O)c3C2=O)C1` (some centres unmarked) [Example 289], 0.419 µM; under `CN1CCC(CN2CN(C3c4ccccc4CSc4ccccc43)n3ccc(=O)c(O)c3C2=O)CC1` (centres unmarked) [Example 292], 2.23 µM.
`O=C1c2c(O)c(=O)ccn2N(C2c3ccccc3CSc3ccccc32)CN1CCOC(F)(F)F` (centres unmarked) [Example 297]: the EC50 stood at 0.033 µM.
Under `O=C1c2c(O)c(=O)ccn2N(C2c3ccccc3CSc3ccccc32)CN1CCCF` (centres unmarked) [Example 298] stands 0.012 µM; under `CC(C)N1CN(C2c3ccccc3CSc3ccccc32)n2ccc(=O)c(O)c2C1=O` (centres unmarked) [Example 301], 0.017 µM; under `O=C1c2c(O)c(=O)ccn2N(C2c3ccccc3CSc3ccccc32)CN1CC(F)(F)F` (centres unmarked) [Example 306], 0.021 µM.
With `CCOCCN1CN(C2c3ccccc3CSc3ccccc32)n2ccc(=O)c(O)c2C1=O` (centres unmarked) [Example 312], the EC50 came out at 0.029 µM.
In the case of `COCC(COC)N1CN(C2c3ccccc3CSc3ccccc32)n2ccc(=O)c(O)c2C1=O` (centres unmarked) [Example 318], the EC50 is 0.015 µM.
For `CC(=O)OCCN1CN(C2c3ccccc3CSc3ccccc32)n2ccc(=O)c(O)c2C1=O` (centres unmarked) [Example 325] the value was 0.025 µM.
For `CC(C)N1CN(C2c3ccccc3CSc3ccc(Cl)cc32)n2ccc(=O)c(O)c2C1=O` (centres unmarked) [Example 328] the value was 0.168 µM; for `COCC(COC)N1CN(C2c3cc(F)ccc3CSc3ccc(F)cc32)n2ccc(=O)c(O)c2C1=O` (centres unmarked) [Example 340], 0.027 µM.
Under `CC(N1CN(C2c3ccccc3CSc3c(F)cccc32)n2ccc(=O)c(O)c2C1=O)C(F)(F)F` (centres unmarked) [Example 342] stands 0.026 µM.
Consider `CC(C)N1CN(C2c3ccccc3CSc3c(F)cccc32)n2ccc(=O)c(O)c2C1=O` (centres unmarked) [Example 351], for which the EC50 came to 0.019 µM.
For `CN1CN(C2c3ccccc3CSc3c(F)cccc32)n2ccc(=O)c(O)c2C1=O` (centres unmarked) [Example 354] the value was 0.083 µM.
Under `CC(CO)N1CN(C2c3ccccc3CCc3ccccc32)n2ccc(=O)c(O)c2C1=O` (centres unmarked) [Example 362] stands 0.067 µM; under `O=C1c2c(O)c(=O)ccn2N(C2c3ccccc3CCc3ccccc32)CN1CC(O)CO` (centres unmarked) [Example 364], 0.515 µM; under `CC(C)C[C@H](CO)N1CN(C2c3ccccc3CSc3ccccc32)n2ccc(=O)c(O)c2C1=O` (some centres unmarked) [Example 374], 0.154 µM.
For the molecule `CC(C)C[C@@H](CO)N1CN(C2c3ccccc3CSc3ccccc32)n2ccc(=O)c(O)c2C1=O` (some centres unmarked) [Example 377], the EC50 is 0.022 µM.
Under `CC(C)(C)[C@@H](CO)N1CN(C2c3ccccc3CSc3ccccc32)n2ccc(=O)c(O)c2C1=O` (some centres unmarked) [Example 380] stands 0.018 µM; under `CC(C)(C)[C@H](CO)N1CN(C2c3ccccc3CSc3ccccc32)n2ccc(=O)c(O)c2C1=O` (some centres unmarked) [Example 381], 0.034 µM; under `O=C1c2c(O)c(=O)ccn2N(C2c3ccccc3CSc3c(Cl)cccc32)CN1CCO` (centres unmarked) [Example 382], 0.094 µM.
In the case of `CC(C)N1CN(C2c3ccccc3COc3ccccc32)n2ccc(=O)c(O)c2C1=O` (centres unmarked) [Example 391], the EC50 was 0.071 µM.
With `COCCN1CN(C2c3ccccc3COc3cc(F)ccc32)n2ccc(=O)c(O)c2C1=O` (centres unmarked) [Example 397], the EC50 was 0.077 µM.
Under `COCCN1CN(C2c3ccccc3COc3ccc(F)cc32)n2ccc(=O)c(O)c2C1=O` (centres unmarked) [Example 401] stands 0.133 µM; under `COCCN1CN(C2c3cc(F)ccc3COc3cc(F)ccc32)n2ccc(=O)c(O)c2C1=O` (centres unmarked) [Example 402], 0.081 µM; under `CC(N1CN(C2c3ccccc3COc3c(F)cccc32)n2ccc(=O)c(O)c2C1=O)C(F)(F)F` (centres unmarked) [Example 406], 0.022 µM.
Regarding `CC(C)N1CN(C2c3ccc(Cl)cc3COc3ccccc32)n2ccc(=O)c(O)c2C1=O` (centres unmarked) [Example 409], the EC50 was 0.029 µM.
For `C[C@@H](N1CN(C2c3ccccc3COc3ccc(F)cc32)n2ccc(=O)c(O)c2C1=O)C(F)(F)F` (some centres unmarked) [Example 410] the value was 0.014 µM.
For `C[C@@H](N1CN([C@H]2c3ccccc3CSc3ccccc32)n2ccc(=O)c(O)c2C1=O)C(F)(F)F` [Example 413] the value was 0.005 µM.
`C[C@H](N1CN([C@@H]2c3ccccc3CSc3ccccc32)n2ccc(=O)c(O)c2C1=O)C(F)(F)F` [Example 415]: the EC50 was 0.022 µM.
Consider `C[C@H](N1CN([C@H]2c3ccccc3CSc3ccccc32)n2ccc(=O)c(O)c2C1=O)C(F)(F)F` [Example 416], for which the EC50 was determined as 0.019 µM.
Under `C[C@@H](N1CN([C@H]2c3ccccc3COc3c(F)cccc32)n2ccc(=O)c(O)c2C1=O)C(F)(F)F` [Example 425] stands 0.047 µM; under `C[C@@H](N1CN([C@H]2c3ccccc3SCc3cccc(Cl)c32)n2ccc(=O)c(O)c2C1=O)C(F)(F)F` [Example 430], 0.029 µM; under `C[C@H](N1CN([C@@H]2c3ccccc3SCc3cccc(Cl)c32)n2ccc(=O)c(O)c2C1=O)C(F)(F)F` [Example 431], 0.011 µM.
As to `C[C@@H](N1CN([C@H]2c3ccc(C(F)(F)F)cc3CSc3ccccc32)n2ccc(=O)c(O)c2C1=O)C(F)(F)F` [Example 432], the EC50 turned out to be 0.062 µM.
Under `C[C@@H](N1CN([C@@H]2c3cc(Cl)ccc3CSc3ccccc32)n2ccc(=O)c(O)c2C1=O)C(F)(F)F` [Example 443] stands 0.004 µM.
For `C[C@@H](N1CN([C@H]2c3ccccc3CSc3c(Cl)cccc32)n2ccc(=O)c(O)c2C1=O)C(F)(F)F` [Example 450] the value was 0.014 µM.
Under `C[C@H](N1CN([C@H]2c3ccccc3CSc3c(F)cccc32)n2ccc(=O)c(O)c2C1=O)C(F)(F)F` [Example 453] stands 0.049 µM.
With `C[C@@H](N1CN([C@H]2c3ccccc3CSc3ccc(Cl)cc32)n2ccc(=O)c(O)c2C1=O)C(F)(F)F` [Example 455], the EC50 is 0.071 µM.
For `C[C@@H](N1CN([C@H]2c3ccccc3CSc3cc(F)ccc32)n2ccc(=O)c(O)c2C1=O)C(F)(F)F` [Example 458] the value was 0.014 µM.
`C[C@H](N1CN([C@H]2c3ccccc3CSc3ccc(F)cc32)n2ccc(=O)c(O)c2C1=O)C(F)(F)F` [Example 461]: the EC50 worked out at 0.074 µM.
`C[C@@H](N1CN([C@H]2c3cc(F)ccc3CSc3ccc(F)cc32)n2ccc(=O)c(O)c2C1=O)C(F)(F)F` [Example 462]: the EC50 is 0.011 µM.
Consider `C[C@H](N1CN([C@H]2c3ccccc3CSc3ccc(Cl)cc32)n2ccc(=O)c(O)c2C1=O)C(F)(F)F` [Example 475], for which the EC50 was 0.441 µM.
For `CC(CN(C)C)N1CN(C2c3ccccc3CCc3ccccc32)n2ccc(=O)c(O)c2C1=O` (centres unmarked) [Example 479] the value was 0.064 µM; for `CC(CN(C)C)N1CN(C2c3ccccc3CSc3ccccc32)n2ccc(=O)c(O)c2C1=O` (centres unmarked) [Example 480], 0.084 µM.
For `CC(CN(C)C)N1CN(C2c3ccccc3CSc3c(Cl)cccc32)n2ccc(=O)c(O)c2C1=O` (centres unmarked) [Example 481] the value was 0.086 µM; for `CC(CN1CCOCC1)N1CN(C2c3ccccc3CSc3ccccc32)n2ccc(=O)c(O)c2C1=O` (centres unmarked) [Example 483], 0.027 µM.
With `CC(C)N1CN(C2c3ccccc3CCc3ccccc32)n2cc(C(=O)O)c(=O)c(O)c2C1=O` [Example 491], the EC50 turned out to be 0.099 µM.
